This note sets out measurements from US20140243403A1, “TREATING COLORECTAL, PANCREATIC, AND LUNG CANCER” (The General Hospital Corporation, priority 2011, published 2014).

pIC50: −log10 of the molar value.

Test [1] concerns C170 cells. The experiment in a line: Cellular proliferation and viability, CRC cell line panel. It counts as cell-based, human. The note with it: KRAS G13D (KRAS-dependent), BRAF WT, CTNNB1 WT, 3 days post-treatment. On the procedure: (§1) (A) IC50 values (μM) for effects on cellular proliferation and viability with the TAK1 kinase inhibitor 5z-7-oxozeaenol in a panel of colon cancer cell lines that have been genotyped as KRAS mutant (KRAS-independent—circles or KRAS-dependent—squares), BRAF mutant (triangles) or wild-type for both KRAS and BRAF (OTHER—diamonds). Effects on growth were measured 3 days post-treatment. Data are represented as the mean of 3 independent experiments and error bars indicate the median±interquartile range. *denotes p<0.00001; n.s.—not significant.
(§2) To further validate TAK1 as a candidate therapeutic target in this context, a potent and selective TAK1 kinase inhibitor, 5Z-7-oxozeaenol (Rawlins et al., 1999), was used. Sensitivity to 5Z-7-oxozeaenol was tested in a panel of 47 colon cancer cell lines with various genotypes (FIGS. 3A and 9A). KRAS and BRAF genotypes were either procured from the Sanger Institute's Catalog of Somatic Mutations (COSMIC) or determined by targeted resequencing (Table 2). KRAS mutation status was determined as described above; the same methods were used to determine the mutation states of BRAF. BRAF exon15 was sequenced with TCATAATGCTTGCTCTGATAGGA (forward; SEQ ID NO:3) and GGCCAAAAATTTAATCAGTGG (reverse; SEQ ID NO:4).

The test system of test [2] is CL-34 cells. The description is as above. It counts as cell-based, human. Conditions: KRAS WT, BRAF V600E, 3 days post-treatment. On the procedure:
as §1, §2

Test [3] relates to COLO-678 cells. Described as above. It counts as cell-based, human. The note with it: KRAS G12D (KRAS-dependent), BRAF WT, APC del, CTNNB1 WT, 3 days post-treatment. On the procedure: as §1, §2
Test [4] has as its system DLD-1 cells. The description is as above. In kind it is cell-based, human. Conditions: KRAS G13D, BRAF WT, APC del, CTNNB1 WT, 3 days post-treatment. On the procedure: as §1, §2
Test [5] has as its system Gp5D cells. The description is as above. In kind it is cell-based, human. Conditions: KRAS G12D (KRAS-dependent), BRAF WT, APC del, CTNNB1 WT, 3 days post-treatment. The protocol:
as §1, §2

Test [6] deals with H630 cells. Described as above. Conditions: KRAS WT, BRAF WT, APC del, CTNNB1 WT, 3 days post-treatment. In kind it is cell-based, human. The protocol: as §1, §2
The test system of test [7] is HCT-116 cells. The description is as above. Conditions: KRAS G13D, BRAF WT, APC WT, CTNNB1 S45del, 3 days post-treatment. In kind it is cell-based, human. The protocol: as §1, §2
Test [8] concerns Hs 1.Int cells. The description is as above. It counts as cell-based, human. Conditions: KRAS WT, BRAF WT, 3 days post-treatment. The protocol:
as §1, §2

The subject of test [9] is LS-174T cells. Described as above. It counts as cell-based, human. The note with it: KRAS G12D, BRAF WT, APC WT, CTNNB1 S45A, 3 days post-treatment. The protocol: as §1, §2
The subject of test [10] is RCM-1 cells. The test is described as above. Conditions: KRAS G12V (KRAS-dependent), BRAF WT, APC del, CTNNB1 WT, 3 days post-treatment. It counts as cell-based, human. On the procedure: as §1, §2
Test [11] relates to SKCO1 cells. The description is as above. In kind it is cell-based, human. The note with it: KRAS G12V (KRAS-dependent), BRAF WT, APC del, CTNNB1 WT, 3 days post-treatment. The protocol: as §1, §2
Test [12] deals with SW1417 cells. The description is as above. It counts as cell-based, human. The note with it: KRAS WT, BRAF V600E, APC del, CTNNB1 WT, 3 days post-treatment. The protocol: as §1, §2
Test [13] relates to SW1463 cells. The description is as above. In kind it is cell-based, human. The note with it: KRAS G12C, BRAF WT, APC del, CTNNB1 WT, 3 days post-treatment. On the procedure:
as §1, §2

Test [14] deals with MCF10A. As to the kind of experiment: Sensitivity of non-transformed epithelial cell line. In kind it is cell-based. The protocol: (§3) (A) 5Z-7-oxozeaenol IC50 values for colorectal cancer cell lines of various genotypes as well as 2 “normal” epithelial cell lines, MCF10A and MDCK (light gray bars). Data are represented as the mean of 3 independent experiments+/−SEM.
(§4) To determine if sensitivity to TAK1 inhibition is specific to colon cancer-derived cell lines, sensitivity to 5Z-7-oxozeaenol was assessed in 5 KRAS mutant pancreatic ductal adenocarcinoma (PDAC) and 4 non-small cell lung cancer (NSCLC) cells, all of which are APC wild-type (FIG. 9B).

Test [15] relates to MDCK. The description is as above. It counts as cell-based. The protocol: as §3, §4
In test [16] the test system is TOP-FLASH TCF4-responsive luciferase reporter. As to the kind of experiment: TOP-FLASH TCF4 luciferase reporter in colon cancer cell lines. It counts as cell-based, human. The source says:
(B) TOP-FLASH activity in KRAS-independent and KRAS-dependent cell lines following TAK1 inhibition with indicated concentrations (μM). Data are represented as means of triplicate experiments±SEM.
Since Wnt pathway enrichment was found in KRAS-dependent cells (FIG. 8C), the TAK1 dependency signature was overlapped with a dataset of binding sites for the Wnt-regulated transcription factor TCF4, derived from ChIP-on-Chip analyses (Hatzis et al., 2008). Of the 32 TAK1 dependency genes, 18 contained proximal TCF4 binding sites. A number of these genes, such as BAMBI, PROX1 and NAV2 (HELAD1) have been previously linked to colon tumorigenesis in the context of deregulated Wnt signaling (Lin et al., 2008; Petrova et al., 2008; Sekiya et al., 2004). Basal Wnt signaling activity was measured by TOP-FLASH TCF4-responsive luciferase assays. Cells were plated in 12-well tissue culture plates at a density of 5×10^4 cells/ml and 1 ml per well. Cells were then co-transfected with either 0.5 μg FOP-FLASH or TOP-FLASH plasmids plus 50 ng of pRL-TK (expressing Renilla luciferase). […]
To explore the role of KRAS and TAK1 in modulating Wnt signaling, the effect of KRAS depletion on β-catenin/TCF transcription was first assessed in a panel of KRAS mutant cell lines using the TOP-FLASH reporter (FIGS. 5A and 11A). […]

With `COc1cc(O)c2c(c1)/C=C/C[C@H](O)[C@H](O)C(=O)/C=C\C[C@H](C)OC2=O` [5Z-7-oxozeaenol], the pIC50 in test [1] is 5.97; in test [2], 6.31; in [3] it was 6.11; in [4], 5.08; in test [5] it was 5.75; in [6], 5.35. The pIC50 in test [7] is 5.62; in test [8] it was 5.25; in test [9], 5.21; in test [10], 6.56; in test [11], 7.59; in test [12] it was 5.91. Further, the pIC50 is 5.62 in [13]; 5.26 in [14]; 4.66 in test [15]; less than 5.00 in test [16] (KRAS-independent cells, 24 h treatment, read-out: IC50 for effect on TOP-FLASH activity). In addition, in test [16] (SW837 cells, increased at low doses, reduced at 5 μM), the TOP-FLASH activity response entry is given as “biphasic response”.
